From patent US7238795B2, “Nucleic acid binding compounds containing pyrazolo[3,4-d]pyrimidine analogues of purin-2,6-diamine and their uses” (Roche Molecular Systems, Inc., priority 2000, dated 2007)
Where “and” joins values, the source holds several entries; their conditions need not be identical. Equal values may be shown once. Read-outs that look alike come from different tables or passages of the source.

Assays:
[1] = target: T1, adenosine deaminase (ADA) (Homo sapiens, UniProt P00813); assay: Deamination by adenosine deaminase, followed UV-spectrophotometrically; type: biochemical; conditions: compared with purine nucleoside 1; even at high enzyme concentrations
T1 sequence (P00813 1-363): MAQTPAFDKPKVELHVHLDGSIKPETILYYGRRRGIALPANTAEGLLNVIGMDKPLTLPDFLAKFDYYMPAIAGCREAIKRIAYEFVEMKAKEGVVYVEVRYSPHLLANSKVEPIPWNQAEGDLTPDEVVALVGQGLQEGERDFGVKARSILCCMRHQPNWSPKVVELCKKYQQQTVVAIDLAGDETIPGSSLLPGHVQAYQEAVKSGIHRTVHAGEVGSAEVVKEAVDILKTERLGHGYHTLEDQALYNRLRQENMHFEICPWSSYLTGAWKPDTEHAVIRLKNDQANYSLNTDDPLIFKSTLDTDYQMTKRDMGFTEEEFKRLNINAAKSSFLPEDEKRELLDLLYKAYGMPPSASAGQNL
Source text: The reaction was followed UV-spectrophoto-metrically (FIG. 1a).
The time-dependent spectra show two isosbestic points (λ=234 nm and 267 nm) indicating the conversion of the starting material into only one reaction product. The deamination of 2a occurs much slower than that of the purine nucleoside 1.

[2] = Half-life of the N-glycosylic bond in HCl, followed UV-spectrophotometrically and by HPLC; type: physicochemical; conditions: 25°; for half-life: read-out: Half-life τ
Protocol: Next, the half-lives of the N-glycosylic bonds of compounds 2a,b in acidic medium were measured and compared with that of compound 1. […]

[3] = test system: complementary oligodeoxyribonucleotide strand (antiparallel duplex); assay: Tm values and thermodynamic data of antiparallel DNA-DNA duplexes (UV melting curves, Meltwin 3.0); type: binding
[4] = Deprotection (alkaline hydrolysis) of base-protected nucleosides in aqueous ammonia, HPLC monitoring; conditions: for time of complete deprotection: conc. ammonia, 40°
[5] = buffer
[6] = test system: complementary oligodeoxyribonucleotide strand (antiparallel duplex); conditions: data published so far; n^2Ad instead of dA; cited from earlier work
[7] = 25% aq. NH3, 40°, HPLC-monitoring

Nc1nc(N)c2c(Br)nn([C@H]3C[C@H](O)[C@@H](CO)O3)c2n1 [2b, 3-Bromo-1-[2-deoxy-β-D-erythro-pentofuranosyl]-1H-pyrazolo[3,4-d]-pyrimidin-4,6-diamine]
deamination by adenosine deaminase [1]: not deaminated
Half-life τ ([2]; 0.5 N HCl, Stable = within 4 h): Stable^b)
half-life ([2]; 2 N HCl): 87 min
Tm increase (stabilization) per modified residue ([3]; text Example 2, standard duplex 102•103): 4.5 ° and 4-5 °
Tm-value of duplex 102•103 with six residues replacing dA ([3]; text b259): 75 °

Nc1nc(N)c2c(I)nn([C@H]3C[C@H](O)[C@@H](CO)O3)c2n1 [2c, 1-(2-Deoxy-β-D-erythro-pentofuranosyl)-3-iodo-1H-pyrazolo[3,4-d]-pyrimidin-4,6-diamine]
Half-life τ ([2]; Table 8, 0.5 N HCl, stable = within 3 h): stable^b)
half-life ([2]; Table 8, 2 N HCl): 61 min

O=C(COc1ccccc1)Nc1nc(NC(=O)COc2ccccc2)c2cnn([C@H]3C[C@H](O)[C@@H](CO)O3)c2n1 [5a, N^4,N^6-Bis(phenoxyacetyl)-1-[2-deoxy-β-D-erythro-pentofuranosyl]-1H-pyrazolo[3,4-d]-pyrimidin-4,6-diamine]
removal of the first pac-group [4, 7]: ≤ 5 min
removal of the second pac-group [4, 7]: 20 min
complete deprotection ([4]; 25% aq. NH3 at r.t.): less than one hour

O=C(Nc1nc(NC(=O)c2ccccc2)c2cnn([C@H]3C[C@H](O)[C@@H](CO)O3)c2n1)c1ccccc1 [5b, N^4,N^6-Bis(benzoyl)-1-[2-deoxy-β-D-erythro-pentofuranosyl]-1H-pyrazolo[3,4-d]-pyrimidin-4,6-diamine]
complete removal of the two benzoyl groups ([4]; 25% aq. NH3, 40°, HPLC monitoring): 8 to 9 h

CCCCN(C=Nc1nc(N=CN(CCCC)CCCC)c2cnn([C@H]3C[C@H](O)[C@@H](CO)O3)c2n1)CCCC [8a, N^4,N^6-Bis((di-n-butylamino)methylene)-1-[2-deoxy-β-D-erythro-pentofuranosyl]-1H-pyrazolo[3,4-d]-pyrimidin-4,6-diamine]
time of complete deprotection ([4]; HPLC-monitoring at 260 nm): 440 min

CCCCN(C=Nc1nc(N=CN(CCCC)CCCC)c2c(Br)nn([C@H]3C[C@H](O)[C@@H](CO)O3)c2n1)CCCC [8b, N^4,N^6-Bis((di-n-butylamino)methylene)-3-bromo-1-[2-deoxy-β-D-erythro-pentofuranosyl]-1H-pyrazolo[3,4-d]-pyrimidin-4,6-diamine]
time of complete deprotection ([4]; HPLC-monitoring at 260 nm): 450 min

CC(C)C(=O)Nc1nc(NC(=O)C(C)C)c2c(Br)nn([C@H]3C[C@H](O)[C@@H](CO)O3)c2n1 [13a, 3-Bromo-1-(2-deoxy-β-D-erythro-pentofuranosyl)-4,6-[(2-methylpropanoyl)amino]-1H-pyrazolo[3,4-d]pyrimidine]
half-life of alkaline hydrolysis [5]: 4.5 min

O=C(Nc1nc(NC(=O)c2ccccc2)c2c(I)nn([C@H]3C[C@H](O)[C@@H](CO)O3)c2n1)c1ccccc1 [13b, 1-[2-Deoxy-β-D-erythro-pentofuranosyl]-4,6-dibenzamido-3-iodo-1H-pyrazolo[3,4-d]-pyrimidine]
time for complete deprotection ([4]; 25% aq. NH3, 40° C., HPLC-monitoring at 260 nm): 450 min

Nc1nc(N)c2ncn([C@H]3C[C@H](O)[C@@H](CO)O3)c2n1 [compound 1, 2-amino-2′-deoxyadenosine, reference compound]
half-life ([2]; 0.5 N HCl, Stable = within 4 h): 6 min
Tm-increase of DNA duplex [6]: 1-2 °C

CC(C)C(=O)Nc1nc(N)c2c(Br)nn([C@H]3C[C@H](O)[C@@H](CO)O3)c2n1 [compound 14, 4-Amino-3-bromo-1-(2-deoxy-β-D-erythro-pentofuranosyl)-6-[(2-methylpropanoyl)amino]-1H-pyrazolo[3,4-d]pyrimidine]
half-life of alkaline hydrolysis ([4]; 25% aq. NH3 at 40°): 20.5 min
